Reference: US20080027023A1, “Antiproliferative Compositions Comprising Aryl Substituted Xylopyranoside Derivatives” (priority 2004, published 2008)

Key:
rat C6 glioma cells = test: Cellular growth assay (crystal violet, A600), rat C6 glioma cells; format: cell-based; details: for growth-inhibitory effect compared to untreated cells (control): FIG. 1A; for inhibits growth: FIG. 1B; for effect on cell growth: FIG. 4
Source text: (§1) Cells were obtained from American type culture collection (ATCC, Rockville, Md.). Regular cell culture media, L-glutamine, penicillin-streptomycin, trypsin, and donor calf serum were obtained from Life Technologies. Dulbeccos Modified Earles Medium, medium 199 and Ham's F-12 medium were purchased from Sigma, difluoromethylornithine (DFMO) was from ILEX Oncology, San Antonio, Tex. Epidermal growth factor was purchased from Genzyme, Cambridge, Mass. and crystal violet from Merck, Germany.
(§2) Cells were cultured as monolayers in Dulbeccos Modified Earles Medium (DMEM) supplemented with 10% (v/v) fetal bovine serum, 2 mM L-glutamine, penicillin (100 U/mL) and streptomycin (100 μg/mL) in an incubator with humidified atmosphere and 5% CO2 at 37° C.
(§3) The growth assay procedure has been described elsewhere (Mani et al., 1998, Cancer Res. 58: 1099-1104). Cells were seeded into 96-well microculture plates at 3000 cells/well in DMEM supplemented with insulin (10 ng/mL), transferrin (25 ng/mL) and 10% fetal calf serum. After 4 h of plating the cells were placed in serum-free Ham's F-12 medium supplemented with insulin (10 ng/mL) and transferrin (25 ng/mL) for an additional 24 h. […] In some experiments cells were pre-treated with DFMO to up-regulate spermine uptake (Belting et al., 2003, J. Biol. Chem. 278: 47181-47189). Controls without growth factor as well as solvent (DMSO) controls were included. The total time of exposure to the various agents was 5 days. Cells were fixed in 1% glutaraldehyde dissolved in Hanks balanced salt solution (NaCl 80 g/L, KCl 4 g/l, glucose 10 g/L, KH2PO4 600 mg/L, NaHPO4 475 mg/L) for 15 min, then cell nuclei were stained with 0.1% crystal violet. After washing and cell lysis for 24 h in Triton X-100, the amount of bound dye was measured at A600 in a microplate photometer (Titertek multiscan). The results are presented as the difference between A600 obtained after 5 days and that obtained immediately after seeding of the cells (t=0).

[1] = system: rat C6 glioma cells implanted subcutaneously; test: Subcutaneous C6 glioma tumors in SCID mice; format: in vivo
Protocol: (§4) Treatment with xyloside was daily contralateral subcutaneous injections (1.7 mM solution; 0.5 ml for mice, 5 ml for rats) for 2 weeks. DFMO (0.1% w/v) was administered via the drinking water.
(§5) Female SCIDnodCA mice (7-8 weeks old) or Fisher rats (12 week old) were kept under pathogen-free conditions in the animal barrier facility at the Biomedical Center, Lund University, according to the Swedish guidelines for humane treatment of laboratory animals. The experimental set-up was approved by the ethical committee for animal research in Malmö/Lund, Sweden. To generate tumors, rat C6 glioma cells or human bladder T24 carcinoma cells (1×10^6 cells in 200 μl PBS) were injected subcutaneously in the dorsal region of 7-8 week old mice (n=4-8) or intracerebrally in rats.
(§6) In the present studies, animals (n=8) received 1.7 mM Xyl-2-Nap-6-OH, i.e. a saturated solution, either ad libitum via the drinking water, or by daily injections either subcutaneously (0.5 ml for mice, 5 ml for rats) or intraperitoneally (0.5 ml) for a total period of up to 2 weeks. Controls received drinking water with no additives or daily injections with sterile water. Food and water intake and changes in body weight were monitored. The xyloside was administered either concurrent with or 3 weeks post-injection. In the latter case, the animals were randomly divided into control and treatment groups with no significant differences in tumor volume. The animals were sacrificed following 2-3 weeks of treatment, and tumor mass or volume was recorded.

cells = test: Uptake of xyloside when added to cells; format: cell-based
Source text: Referring to FIG. 4, the results of treating rat C6 glioma cells with peracetylated Gal-4-Xyl-2-Nap-6-OH are shown. […] The reason for this difference is that peracetylated Gal-4-Xyl-2-Nap-6-OH is deacetylated by non-specific esterases after uptake into cells, whereby the resulting non-acetylated Gal-4-Xyl-2-Nap-6-OH remains trapped inside the cell resulting in a much higher local concentration. Accordingly, non-acetylated Gal-4-Xyl-2-Nap-6-OH is not taken up when added to cells.

[2] = system: human bladder carcinoma T24 cells; test: Cellular growth assay, human bladder carcinoma T24 cells; format: cell-based; details: for cytotoxic effect on T24 cells: 0.5 mM xyloside, FIG. 5A / FIG. 2
Source text: as §1, §2, §3

[3] = system: normal human lung fibroblasts; test: Cellular growth assay, normal human lung fibroblasts; format: cell-based
Source text: as §1, §2
The growth assay procedure has been described elsewhere (Mani et al., 1998, Cancer Res. 58: 1099-1104). Cells were seeded into 96-well microculture plates at 3000 cells/well in DMEM supplemented with insulin (10 ng/mL), transferrin (25 ng/mL) and 10% fetal calf serum. After 4 h of plating the cells were placed in serum-free Ham's F-12 medium supplemented with insulin (10 ng/mL) and transferrin (25 ng/mL) for an additional 24 h. […] After washing and cell lysis for 24 h in Triton X-100, the amount of bound dye was measured at A600 in a microplate photometer (Titertek multiscan). […]

A549 cells [4] = test: Growth inhibition of A549 cells; format: cell-based; details: combination with DFMO and spermine-NONOate
[5] = system: SV40 virus infected fibroblasts; test: Growth inhibition of SV40 virus infected fibroblasts; format: cell-based; details: combination with DFMO and spermine-NONOate
HepG2 hepatoma cells [6] = test: Growth inhibition of HepG2 hepatoma cells; format: cell-based; details: combination with DFMO and spermine-NONOate
[7] = system: rat C6 glioma cells implanted intracerebrally; test: Intracerebral C6 glioma tumors in rats; format: in vivo
Protocol: as §4, §5
as §6, with “In the latter case, the animals were randomly divided into control and treatment groups with no significant differences in tumor volume.” left out

[8] = system: tumor cells located subcutaneously or orthotopically; test: Other animal experiments, tumor-bearing mice, various routes of administration; format: in vivo
Protocol: as §5, §6
Treatment with Xyl-2-Nap-6-OH reduce the average tumor load by 70-97% in mice receiving the compound concomitant with tumor cell inoculation as well as in mice with pre-formed tumors. […] Side-effects via inhibition of proteoglycan synthesis in cartilage and connective tissues is unlikely, as xyloside concentrations greater than 2 mM are required for their inhibition in vitro (Moses et al., 1999, Eur, J. Biochem. 26: 879-884).

[9] = Saturated solution used for dosing; format: physicochemical; details: drinking water / injection solution
Protocol: as §6

A549 cells [10] = details: Mani et al. Glycobiology 14: 387-397; cited from earlier work
[11] = system: SV40 virus infected fibroblasts; details: Mani et al. Glycobiology 14: 387-397; cited from earlier work
HepG2 hepatoma cells [12] = details: Mani et al. Glycobiology 14: 387-397; cited from earlier work
[13] = after uptake by DFMO-treated cells; cited from earlier work

With NCCC[C@](N)(C(=O)O)C(F)F [DFMO, α-difluoromethylornithine, reference compound] the “growth-inhibitory effect compared to untreated cells (control)” value (rat C6 glioma cells; 5 mM DFMO alone) was “no significant growth-inhibitory effect” and the “higher concentration of DFMO in the drinking water required for the same effect with DFMO alone” value ([1]; relative to 0.1% w/v DFMO given with Xyl-2-Nap-6-OH (83% reduction)) was 10-20 fold.

With OC[C@H]1O[C@@H](O[C@@H]2CO[C@@H](Oc3ccc4cc(O)ccc4c3)[C@H](O)[C@H]2O)[C@H](O)[C@@H](O)[C@H]1O [Gal-4-Xyl-2-Nap-6-OH, 2-(6-hydroxynaphthyl)-4-O-(β-D-galactopyranosyl)-β-D-xylopyranoside] the “uptake when added to cells” value (cells) was “not taken up”.

In the case of Oc1ccc2cc(OC3OCC(O)C(O)C3O)ccc2c1 (centres unmarked) [Xyl-2-Nap-6-OH], the inhibits growth (rat C6 glioma cells; 0.5 mM xyloside alone) is reported as 65%, the inhibits growth (rat C6 glioma cells; 0.5 mM xyloside combined with 5 mM DFMO and 5 μM spermineNONOate) is reported as 93% and the “effect on cell growth” value ([2]; 0.2 mM xyloside alone, FIG. 2) is reported as “marginally affected”. For the same compound, the “effect on cell growth” value ([2]; 0.2 mM xyloside and 5 mM DFMO with 2.5 5 μM spermineNONOate) was “insufficient”, the “effect on cell growth” value ([2]; 0.2 mM xyloside combined with 5 mM DFMO and 5 μM spermineNONOate, FIG. 2) was “complete cell death” and the “effect on cell growth” value ([2]; 0.5 mM xyloside alone, FIG. 2) was “completely growth-arrested”. The “cytotoxic effect on T24 cells” value [2] was “marginally cytotoxic”, the “reduction of cell growth” value ([3]; 0.2 mM xyloside, 5 mM DFMO and 5 μM spermineNONOate, FIG. 3) was 20% and the “effect of xyloside with DFMO and spermine-NONOate” value (shortened to “effect of xyloside”) (A549 cells [4]) was “Synergistic cytotoxic effects”. The “effect of xyloside” value [5] was “Synergistic cytotoxic effects”, the “effect of xyloside” value (HepG2 hepatoma cells [6]) was “Synergistic cytotoxic effects” and the “subcutaneous C6 glioma tumor weight reduced” value ([1]; SCID mice, daily contralateral s.c. injections of 1.7 mM solution, 0.5 ml, 2 weeks, FIG. 6A) was 78%. For the same compound, the tumor-load reduced ([1]; mice treated with xyloside plus DFMO 0.1% w/v via the drinking water, FIG. 6C) was 83%, the blood-brain barrier penetration ([7]; inferred from reduced intracerebral tumor volume in rats) was “can penetrate the blood-brain barrier” and the tumor volume ([7]; rats, intracerebral C6 glioma, daily s.c. injections of 1.7 mM solution, 5 ml, 2 weeks, FIG. 6B) was “reduced”. For the same compound, the “reduction of average tumor load” value ([8]; mice, compound given concomitant with tumor cell inoculation or to pre-formed tumors) was 70-97%, the “toxic side-effects in vivo” value ([8]; mouse, in vivo) was “lack of obvious toxic side-effects” and the “absorption and availability to tumor cells” value ([8]; various ways of administration including oral) was “adsorbed and made available to tumor cells”. For the same compound, the “concentration of saturated solution” value [9] was 1.7 mM, the growth inhibition (A549 cells [10]) was “selectively inhibits growth” and the growth inhibition [11] was “selectively inhibits growth”. For the same compound, the growth inhibition (HepG2 hepatoma cells [12]) was “selectively inhibits growth”.

For CC(=O)OC[C@H]1O[C@@H](O[C@@H]2CO[C@@H](Oc3ccc4cc(OC(C)=O)ccc4c3)[C@H](OC(C)=O)[C@H]2OC(C)=O)[C@H](OC(C)=O)[C@@H](OC(C)=O)[C@H]1OC(C)=O [peracetylated Gal-4-Xyl-2-Nap-6-OH], the “effect on cell growth” value (rat C6 glioma cells; 0.2 mM xyloside alone) was “complete growth-arrest”, the “potency relative to Xyl-2-Nap-6-OH at the same concentrations” value (rat C6 glioma cells; comparison of FIG. 4 with FIG. 1B) was “at least 5 fold” and the “effect on cell growth” value (rat C6 glioma cells; xyloside in combination with 5 mM DFMO and 5 μM spermineNONOate) was “significant cytotoxic effect”.

With CC(=O)Oc1ccc2cc(O[C@@H]3OC[C@@H](OC(C)=O)[C@H](OC(C)=O)[C@H]3OC(C)=O)ccc2c1 [peracetylated Xyl-2-Nap-6-OH] the “cytotoxic effect on T24 cells” value [2] was “clear cytotoxic effect” and the “effect on growth of normal human fibroblasts” value ([3]; 0.5 mM xyloside, FIG. 5B) was “does not affect growth”.

For NCCCNCCCCN(CCCN)/[N+]([O-])=N/O [spermineNONOate, reference compound], the “growth-inhibitory effect compared to untreated cells (control)” value (rat C6 glioma cells; 5 μM spermineNONOate alone) is given as “no significant growth-inhibitory effect” and the “half-life of intracellular NO release” value [13] is given as 4 h.
